Measurements reported in article PMC10584170, “Machine learning-based phenotypic imaging to characterise the targetable biology of Plasmodium falciparum male gametocytes for the development of transmission-blocking antimalarials” (PLOS Pathogens, 2023).

How the values were obtained:
[1] = system: P. falciparum female gametocytes; test: P. falciparum Dual Gamete Formation Assay (PfDGFA), female readout (Pfs25-positive female gametes); type: cell-based, Plasmodium falciparum NF54; details: for % inhibition female (individual replicates) R1: replicate R1; for % inhibition female (individual replicates) R3: replicate R3; for % inhibition female (individual replicates) R4: replicate R4; for Average inhibition female (%): average of replicates
Procedure, shortened: (§1)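 Mature NF54 gametocytes (day 14) were incubated with compound for 24 h at 37°C under 1% O2/3% CO2, then triggered with xanthurenic acid ookinete medium plus Cy3-anti-Pfs25. Exflagellation was imaged by brightfield; after a further 24 h at 28°C, Pfs25-positive female gametes were imaged by fluorescence and counted by automated image analysis.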

[2] = system: P. falciparum male gametocytes; test: P. falciparum Dual Gamete Formation Assay (PfDGFA), male readout (exflagellation); type: cell-based, Plasmodium falciparum NF54; details: for % inhibition male (individual replicates) R1: replicate R1; for % inhibition male (individual replicates) R3: replicate R3; for % inhibition male (individual replicates) R4: replicate R4; for Average inhibition male (%): average of replicates; for Activity: hit = >50% inhibition in male or female readout in at least 3 replicates, 0 = no class assigned
Procedure, shortened: as §1

[3] = PfDGFA at 2µM, 24h preincubation with gametocytes prior to induction of gametogenesis
[4] = PfDGFA at 2µM, 24h preincubation
[5] = 2µM, 24h preincubation with gametocytes prior to induction of gametogenesis
[6] = 2µM, 24h preincubation, hits selected on >50% inhibition in the female readout across replicates
[7] = 2µM, 24h preincubation, hits selected on >50% inhibition in the male readout across replicates
[8] = 2µM, 24h preincubation, number of replicates with >50% inhibition in the female readout
[9] = 2µM, 24h preincubation, number of replicates with >50% inhibition in the male readout

Row | SMILES | % inhibition female (individual replicates) R1 [1, 3] [%] | % inhibition female (individual replicates) R3 [1, 3] [%] | % inhibition female (individual replicates) R4 [1, 3] [%] | Average inhibition female (%) [1, 4] [%] | % inhibition male (individual replicates) R1 [2, 3] [%] | % inhibition male (individual replicates) R3 [2, 3] [%] | % inhibition male (individual replicates) R4 [2, 3] [%] | Average inhibition male (%) [2, 4] [%] | Average inhibition female (%) [1, 5] [%] | % inhibition female (individual replicates) R1 [1, 5] [%] | % inhibition female (individual replicates) R3 [1, 5] [%] | % inhibition female (individual replicates) R4 [1, 5] [%] | HitlevelF [1, 6] | Average inhibition male (%) [2, 5] [%] | % inhibition male (individual replicates) R1 [2, 5] [%] | % inhibition male (individual replicates) R3 [2, 5] [%] | % inhibition male (individual replicates) R4 [2, 5] [%] | HitlevelM [2, 7] | Activity [2, 4] | also measured
1 | Cc1nc2nc(N)nc(N)c2c(C)c1Cc1cccc(C#N)c1.Cl [TCMDC-137646] | -3.5 | -14.6 | 5.5 | -8.2 | 10.9 | 34.4 | 21.2 | 19.8 | – | – | – | – | – | – | – | – | – | – | – | –
2 | Cc1ccc(Cc2c(C)nc3nc(N)nc(N)c3c2C)cc1.Cl [TCMDC-137657] | -6.6 | 8.8 | -7.7 | -3.5 | 13.2 | 20.3 | 13.4 | 14.9 | – | – | – | – | – | – | – | – | – | – | – | –
3 | Cc1nc2nc(N)nc(N)c2c(C)c1Cc1ccccc1Cl.Cl [TCMDC-137668] | – | – | – | – | – | – | – | – | 9.8 | 18.7 | -14.7 | 32.6 | 0 | 0.635 | 24.9 | -5.5 | -27.1 | 0 | 0 | –
4 | CC(C)N(Cc1cnc2nc(N)nc(N)c2n1)c1ccc(Cl)c(Cl)c1 [TCMDC-137675] | 8.3 | -2.9 | 6.8 | 1.4 | 8.1 | 1.6 | -34.5 | -1.6 | – | – | – | – | – | – | – | – | – | – | – | –
5 | COc1ccc(N(C)Cc2cnc3nc(N)nc(N)c3n2)cc1 [TCMDC-137682] | 1.5 | 1.9 | 1.8 | 3.6 | 16.6 | – | -18.5 | 5.0 | – | – | – | – | – | – | – | – | – | – | – | –
6 | CCCc1cc(Cc2cnc(N)nc2N)cc(CCC)c1O.Cl [TCMDC-137695] | -0.04 | -0.32 | -11.2 | -4.4 | 13.3 | -2.6 | -24.5 | -1.8 | – | – | – | – | – | – | – | – | – | – | – | –
7 | Cc1cc(N2C(N)=NC(N)=NC2(C)C)ccc1Cl.Cl [TCMDC-137705] | – | – | – | – | – | – | – | – | 4.4 | 16.7 | -1.9 | -1.7 | 0 | -12.7 | 23.4 | -17.5 | -53.8 | 0 | 0 | –
8 | Cc1ccc(N2C(N)=NC(N)=NC2(C)C)cc1Cl.Cl [TCMDC-137708] | – | – | – | – | – | – | – | – | 15.0 | 12.7 | 7.1 | 19.9 | 0 | -13.6 | 11.4 | -5.0 | -55.8 | 0 | 0 | –
9 | CCCCCc1ccc(N2C(N)=NC(N)=NC2(C)C)cc1.Cl [TCMDC-137709] | – | – | – | – | – | – | – | – | 8.1 | 15.2 | -7.7 | 22.0 | 0 | 2.5 | 18.2 | 6.4 | -27.8 | 0 | 0 | –
10 | CCCCCOc1ccc(N2C(N)=NC(N)=NC2(C)C)cc1.Cl [TCMDC-137711] | – | – | – | – | – | – | – | – | 10.0 | 16.6 | -26.0 | 23.4 | 0 | -17.3 | 6.1 | -21.6 | -48.5 | 0 | 0 | –
11 | CC(C)(C)c1ccc(N2C(N)=NC(N)=NC2(C)C)cc1.Cl [TCMDC-137713] | – | – | – | – | – | – | – | – | 20.6 | 16.4 | 30.6 | 16.4 | – | -3.6 | 17.2 | 2.2 | -36.5 | – | – | HitlevelF [1, 8]: 0; HitlevelM [2, 9]: 0
12 | CCc1ccc(N2C(N)=NC(N)=NC2(C)C)cc1.Cl [TCMDC-137714] | – | – | – | – | – | – | – | – | 7.9 | 15.9 | 0.5 | 12.9 | 0 | 9.1 | 34.5 | 9.3 | -34.5 | 0 | 0 | –
13 | CCCC(C)c1ccc(N2C(N)=NC(N)=NC2(C)C)cc1.Cl (stereo not drawn) [TCMDC-137715] | -4.9 | 0.05 | 1.4 | -2.9 | 8.4 | – | -43.6 | -6.3 | – | – | – | – | – | – | – | – | – | – | – | –
14 | CN1CCN(CCNc2c3ccccc3nc3c2ccc2ccccc23)CC1.Cl [TCMDC-137723] | – | – | – | – | – | – | – | – | 18.4 | 9.6 | 26.6 | 23.3 | – | -12.0 | -27.6 | -0.85 | 0.03 | – | – | HitlevelF [1, 8]: 0; HitlevelM [2, 9]: 0
15 | COc1ccc2nc(-c3ccccc3)cc(NCCCNc3cc(-c4ccccc4)nc4ccc(OC)cc34)c2c1.Cl [TCMDC-137734] | – | – | – | – | – | – | – | – | 5.7 | 14.1 | -18.5 | 23.4 | 0 | 9.4 | 15.3 | -6.1 | 18.2 | 0 | 0 | –
16 | Cl.c1ccc2c(NCCCCCCCCCNc3ccnc4ccccc34)ccnc2c1 [TCMDC-137750] | – | – | – | – | – | – | – | – | 39.1 | 35.8 | 19.4 | 48.2 | – | 54.0 | 40.7 | 8.2 | 84.2 | – | – | HitlevelF [1, 8]: 1; HitlevelM [2, 9]: 2
17 | COCCOc1nc(N)nc2ncc(Cc3cc(OC)ccc3OC)c(C)c12 [TCMDC-137754] | 1.5 | -13.9 | 2.0 | -4.6 | 18.4 | 27.4 | 26.2 | 25.9 | – | – | – | – | – | – | – | – | – | – | – | –
18 | OCc1ccc2nc3c(cc2c1)-c1cccc2cccc-3c12 [TCMDC-137756] | 4.5 | -23.9 | -12.7 | -11.0 | -3.7 | 13.3 | 12.3 | 6.9 | – | – | – | – | – | – | – | – | – | – | – | –
19 | COc1ccc(O)c(Cc2cnc3nc(N)[nH]c(=O)c3c2C)c1.CS(=O)(=O)O [TCMDC-137766] | 3.3 | -13.8 | -13.6 | -2.6 | 13.3 | -7.3 | -9.1 | 1.5 | – | – | – | – | – | – | – | – | – | – | – | –
